Read-outs that look alike come from different tables or passages of the source. Marks after values point to notes of the source that are not given here.
Legend:
fetal rats [1] = test: Effects on early embryo development in pregnant rats; assay type: in vivo; details: aspirin 250 mg/kg oral, days 10-12 of pregnancy; 14 pregnant rats
From the text: (§1) To test the embryotoxicity and teratogenic effects of GASP, a rat model was used.
(§2) Healthy SD rats weighing between 200-250 g were selected and housed together overnight at a 2:1 ratio of females to males. Beginning on the next day, vaginal smears were examined each morning, and the date when sperm was found was considered day 0 of pregnancy.
(§3) The pregnant rats were randomly divided into 5 groups, 18 rats per group. […] The human clinical dose was four capsules per dose (each capsule containing 0.3 g of the GSAP), four times daily. The study was designed so that the low dose group was 428.6 mg/kg, medium dose group was 2143 mg/kg, and the high dose group was 4286 mg/kg (equivalent to 1, 5, and 10 times the human clinical dose, respectively, when calculated according to the respective body surface areas of the rat and human). During the 6-15 days of the pregnancy, the GASP was orally administered to the rats in the dosage groups at a volume of 1.5 ml/100 g through gavage. The positive control group was given aspirin (250 mg/kg) on days 10-12 of the pregnancy, at the volume of 1.0 ml/100 g orally by means of a stomach tube, while the negative control group was given the equivalent amount of distilled water orally through gavage.
All the pregnant rats were weighed once every 3 days, so as to adjust the dosage. On the day 20 of the pregnancy, the animals were sacrificed by dislocating the vertebra, and a cesarean was performed to obtain the fetal rats in order to check various indexes and for statistical analysis.

[2] = Weight gain of the pregnant rats (embryotoxicity/teratogenicity study); assay type: in vivo; details: days 10-12 of pregnancy
From the text: as §1, §2, §3
All the pregnant rats were weighed once every 3 days, so as to adjust the dosage. […]

fetal rats [3] = test: Effects on fetal rat organogenesis (Bouins fixation, sectioning); design: species or system Sprague Dawley (SD) rats; details: female, Sprague-Dawley, in vivo
From the text: Approximately ⅓ of the fetal rats were removed per litter, fixed with Bouins solution and then manually sectioned, with the various internal organs being then observed under the dissecting microscope.

[4] = system: mice bone marrow cell chromosomal aberration induced by cyclophosphamide; details: 500 cells
From the text: The test used was the modified mice bone marrow cell micronucleus test as specified in “A Notice Concerning Issuance of the Revised Items of the ‘Health Food Functional Assessment Procedures and Testing Methods’,” a document from the Ministry of Public Health of the People's Republic of China, which is hereby incorporated by reference.
The mice were randomly divided by weight into 9 groups, 5 males and 5 females respectively per group. Animals in each group were given the following treatment:
The drug was prepared as a suspension of the required concentration in distilled water, and administered orally through tube at individual dosages of 0.2 mL/10 g of body weight. The negative control group was given distilled water of the equivalent volume through tube once a day for 30 days continuously. […] 4 hours before the mice were sacrificed they are given colchicine, and the bone marrow was extracted in order to prepare the chromosome samples in the routine way.
Samples from each group were observed. One hundred (100) metaphase cells per mouse were observed, and the chromosomal structures and the numbers of aberrations were recorded. Using SPSS for Windows 8.0 (t-test), a comparative analysis was made of the experimental data from the various dosage groups and the positive groups and tested to find out if there was any significant difference between the males and females within the group.

[5] = system: bone marrow cells of mice
Description: Male NIH mice weighing 22-25 g, provided by the Guangdong Provincial Animal Center for Medical Experiments, were used. […] Each group contained 5 mice. Dosages were administered once a day for 3 consecutive days, orally via gavage.
Distilled water was then added to adjust the suspension to the required concentration. The compound was orally administered through gavage at 0.4 ml/10 g of body weight. […] Twenty four (24) hours after the last administration the animals were sacrificed by dislocation of the cervical vertebra. The femur was then removed, the muscle stripped away, and the bone marrow flushed out using phosphate buffer, centrifuged, fixed hyponotically and the chromosome sample is prepared using methods routine in the art. It was then stained for 10 min using 10% Giemsa's stain (pH 6.8).
Well dispersed Metaphase cells were selected for observation under the oil immersion lens. One hundred (100) metaphase cells were observed per animal, the number of cells with chromosomal aberrations noted, and the chromosomal aberration rate calculated. The data obtained were analyzed statistically calculated using SPSS for Windows 8.0 (t-test).

[6] = CP 40 mg/kg alone (positive group), F
[7] = CP 40 mg/kg alone (positive group), M
[8] = CP 50 mg/kg alone (positive group 4), F
[9] = CP 50 mg/kg alone (positive group 4), M
[10] = positive control: cyclophosphamide 40 mg/kg oral, single administration, 500 cells counted

CC(=O)Oc1ccccc1C(=O)O [Aspirin, aspirin]
Mean no. survivors per litter (fetal rats [1]): 4.0* | No. of litters with dead fetuses (fetal rats [1]): 5 | No. surviving fetus (fetal rats [1]): 56 | Net Weight Gain ([2]; aspirin 250 mg/kg oral): 47.8 ± 13.9 g | Net weight gain vs negative control group ([2]; aspirin 250 mg/kg, p<0.05): significantly lower than that of the negative control group | Number of hydrocephalic fetal rats (fetal rats [3]): 2

O=P1(N(CCCl)CCCl)NCCCO1 (stereo not shown) [CP, cyclophosphamide]
Abberant Cell Count [4, 6]: 118 | Abnormality Rate [4, 6]: 1.2 | Cell Aberration Rate % [4, 6]: 23.6% | No. of Abnormalities Polyploid [4, 6]: 5 | No. of Abnormalities hyperploid [4, 6]: 1 | No. of Abormal Cells [4, 6]: 6 | crb (chromatid break) [4, 6]: 95 | csb (chromosome break) [4, 6]: 28 | csg (chromosome gap) [4, 6]: 0 | ctg (chromatid gap) [4, 6]: 16 | del (nullisomic) [4, 6]: 50 | dmin (dimicrobody) [4, 6]: 0 | f (fragment) [4, 6]: 60 | r (ring chromosome) [4, 6]: 0 | tr (triradial) [4, 6]: 21 | Abberant Cell Count [4, 7]: 108 | Abnormality Rate [4, 7]: 1.8 | Cell Aberration Rate % [4, 7]: 21.6% | No. of Abnormalities Polyploid [4, 7]: 6 | No. of Abnormalities hyperploid [4, 7]: 1 | No. of Abormal Cells [4, 7]: 9 | crb (chromatid break) [4, 7]: 94 | csb (chromosome break) [4, 7]: 19 | csg (chromosome gap) [4, 7]: 0 | ctg (chromatid gap) [4, 7]: 18 | del (nullisomic) [4, 7]: 47 | dmin (dimicrobody) [4, 7]: 0 | f (fragment) [4, 7]: 62 | r (ring chromosome) [4, 7]: 0 | tr (triradial) [4, 7]: 15 | Abberant Cell Count [4, 8]: 221 | Abnormality Rate [4, 8]: 2.0 | No. of Abnormalities Polyploid [4, 8]: 5 | No. of Abnormalities hyperploid [4, 8]: 5 | No. of Abormal Cells [4, 8]: 10 | crb (chromatid break) [4, 8]: 185 | csb (chromosome break) [4, 8]: 21 | csg (chromosome gap) [4, 8]: 0 | ctg (chromatid gap) [4, 8]: 18 | del (nullisomic) [4, 8]: 103 | dmin (dimicrobody) [4, 8]: 0 | f (fragment) [4, 8]: 117 | r (ring chromosome) [4, 8]: 0 | tr (triradial) [4, 8]: 32 | Abberant Cell Count [4, 9]: 198 | Abnormality Rate [4, 9]: 2.2 | No. of Abnormalities Polyploid [4, 9]: 9 | No. of Abnormalities hyperploid [4, 9]: 2 | No. of Abormal Cells [4, 9]: 11 | crb (chromatid break) [4, 9]: 170 | csb (chromosome break) [4, 9]: 33 | csg (chromosome gap) [4, 9]: 0 | ctg (chromatid gap) [4, 9]: 18 | del (nullisomic) [4, 9]: 92 | dmin (dimicrobody) [4, 9]: 0 | f (fragment) [4, 9]: 100 | r (ring chromosome) [4, 9]: 1 | tr (triradial) [4, 9]: 29 | Chromosomal aberration rate vs negative control group ([5]; CP 40 mg/kg, p<0.01): noticeably higher than that of the negative control group | Chromosomal Aberration Rate (%) [5, 10]: 25.0* % | No. aberrant cells [5, 10]: 115 | Type and Number of Aberration: I (chromosomal fragmentation) [5, 10]: 35 | Type and Number of Aberration: b (chromosomal breakage) [5, 10]: b(48) | Type and Number of Aberration: f (chromosal fusion) [5, 10]: 59

Source: patent US20040009189A1, “Antimutagenic effects of ganoderma lucidum spores” (priority 2002, published 2004)
